One assay has as its system SW480 cells. As to the kind of experiment: Cell cycle analysis in SW480 cells by flow cytometry. It is filed as cell-based. The settings on record: 24-hour treatment. The method, then:
(§1) Reagents. MDA-MB-231 (Breast adenocarcinoma, triple negative breast cancer) and SW480 (colorectal adenocarcinoma, stem-like subtype) cells were purchased from ATCC and cultured as per manufacturer's instruction. Thymidine (Sigma, T9250) stock solution (100 mM) was prepared in PBS. 2′-Deoxycytidine (Sigma, D897) stock solution (240 mM) was prepared in distilled H2O. Nocodazole (Selleck Chemicals, S2775) stock solution (5 mg/mL) was made in dimethyl sulfoxide (DMSO). FxCycle Far Red stain (F10348) for cell cycle analysis was purchased from Thermo Fisher Scientific.
Flow Cytometry Analysis. The SW480 cells were treated with NEK2 inhibitors at a concentration ranging from 0-1000 nM for 24 hours. After 24 hours of treatment, cells were detached and dissociated using 0.25% trypsin. After trypsinization, cells were washed with ice-cold PBS and fixed in 4% paraformaldehyde (PFA) at room temperature for 20 minutes. After fixation, cells were permeabilized by incubating in 90% methanol for 30 minutes on ice. Subsequently, cells were stained with FITC conjugated anti-EZH2 antibody (1:50, Cell Signaling technology) for 2 hours at room temperature and FxCycle Far Red stain (Thermo Fisher Scientific) for visualization of EZH2 expression and cell cycle, respectively. […] A minimum of 100,000 events were analyzed in each sample, and the results were evaluated using FlowJo software. […]
Background: A flow cytometer gives signals particle by particle.

The target in assay [1] is T1, Aurora A kinase (Accession No. NP-940839) (Homo sapiens, UniProt O14965).
T1 construct: purchased ThermoFisher Scientific (Invitrogen)
T1 sequence (O14965 1-403): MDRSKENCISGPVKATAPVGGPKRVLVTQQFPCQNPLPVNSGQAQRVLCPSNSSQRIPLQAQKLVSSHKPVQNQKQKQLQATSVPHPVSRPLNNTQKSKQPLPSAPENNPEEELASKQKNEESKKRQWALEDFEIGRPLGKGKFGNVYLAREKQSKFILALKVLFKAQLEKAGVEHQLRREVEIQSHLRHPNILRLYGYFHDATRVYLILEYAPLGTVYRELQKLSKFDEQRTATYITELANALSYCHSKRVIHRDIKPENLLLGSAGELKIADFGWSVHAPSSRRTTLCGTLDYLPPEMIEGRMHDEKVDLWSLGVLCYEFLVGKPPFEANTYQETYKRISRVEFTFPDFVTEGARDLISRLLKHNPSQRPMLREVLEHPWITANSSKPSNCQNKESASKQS
As to the kind of experiment: HotSpot Kinase Assay, Aurora A. The assay is classed as biochemical. The method, then: (§2) In this example, the compounds described herein were tested for their inhibitory activity against NEK2 and/or Aurora A using the HotSpot™ Kinase Assay (Reaction Biology Corp.). The assay was performed according to the manufacturer's protocol, as detailed below. The NEK2 kinase (Accession No. NP-002488) and Aurora A kinase (Accession No. NP-940839) for use in these assays was sourced from ThermoFisher Scientific (Invitrogen).
(§3) The base Reaction Buffer used in this experiment contained the following: 20 mM Hepes (pH 7.5), 10 mM MgCl2, 1 mM EGTA, 0.02% Brij™-35, 0.02 mg/ml BSA, 0.1 mM Na3VO4, 2 mM DTT, and 1% DMSO. The required cofactors were added individually to each kinase reaction.
(§4) Testing compounds were dissolved in 100% DMSO to a specific concentration. The serial dilution was conducted by Integra Viaflo Assist in DMSO.
(§5) The substrate was prepared in freshly prepared Reaction Buffer. The required cofactors were delivered to the substrate solution described above. NEK2 kinase or Aurora A kinase was delivered to the substrate solution and gently mixed. Next, the compounds in 100% DMSO were transferred to the kinase reaction mixture by Acoustic technology (Echo550; nanoliter range) and incubated for 20 min at room temperature. ^33P-ATP (Specific activity 10 μCi/μl) was delivered into the reaction mixture to initiate the reaction. The reaction was incubated for 2 hours at room temperature. Radioactivity was then detected by the filter-binding method. Kinase activity data were expressed as the percent remaining kinase activity in test samples compared to vehicle (dimethyl sulfoxide) reactions. IC50 values and curve fits were obtained using Prism (GraphPad Software).

In the next assay the target is T2, NEK2 (Homo sapiens, UniProt P51955).
T2 construct: expressed in transfected cells; host or cells: HEK293
T2 sequence (P51955 1-445): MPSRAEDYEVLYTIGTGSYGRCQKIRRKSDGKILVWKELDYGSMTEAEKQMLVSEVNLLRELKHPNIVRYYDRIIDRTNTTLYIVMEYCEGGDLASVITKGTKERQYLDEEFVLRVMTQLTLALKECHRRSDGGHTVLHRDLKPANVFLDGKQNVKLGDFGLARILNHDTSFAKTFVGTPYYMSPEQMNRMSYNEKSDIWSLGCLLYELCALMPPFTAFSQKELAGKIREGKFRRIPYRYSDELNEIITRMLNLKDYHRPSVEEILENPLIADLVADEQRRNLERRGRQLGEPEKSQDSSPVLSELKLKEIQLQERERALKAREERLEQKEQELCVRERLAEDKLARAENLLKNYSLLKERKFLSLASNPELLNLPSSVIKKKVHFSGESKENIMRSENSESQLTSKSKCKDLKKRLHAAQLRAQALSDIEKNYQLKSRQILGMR
The assay can be described thus: NanoBRET Target Engagement Intracellular Kinase Assay for NEK2 in transfected HEK293 cells. The assay is classed as cell-based. The procedure: In this example, the compounds described herein were tested for their inhibitory activity against NEK2 using a model of in vivo activity by the NanoBRET™ Target Engagement Intracellular Kinase Assay (Reaction Biology Corp.). The assay was performed according to the manufacturer's protocol, as detailed below.
HEK293 cells were cultivated (70-80% confluence) prior to the assay. The sample was trypsinized and HEK293 cells were collected.
To prepare lipid: DNA complexes, a 10 μg/ml solution of DNA in Opti-MEM without serum was prepared that consisted of the following ratios of carrier DNA and DNA encoding NanoLuc® fusion: 9.0 μg/ml of Transfection Carrier DNA, 1.0 μg/ml of NanoLuc fusion vector DNA and 1 ml of Opti-MEM without phenol red. The solution was mixed thoroughly. 30 μl of FuGENE HD Transfection Reagent was added into each milliliter of DNA mixture to form lipid: DNA complex. The sample was mixed by inversion 10 times and then incubated at ambient temperature for 20 minutes to allow complexes to form. In a sterile, conical tube, 1 part of lipid:DNA complex was mixed with 20 parts of HEK293 cells in suspension. The resulting sample was mixed gently by inversion 5 times. The cell and lipid: DNA complex was dispensed into a sterile tissue culture dish and incubated for 22-24 hours.
Each test compound is delivered from the compound source plate to the wells of 384-well white NBS plate by Echo 550.
Step 3. Preparation of Cells with NanoBRET™ Tracer K5 Reagent:
The medium was removed from the dish with the transfected HEK293 cells via aspiration, trypsinized and cells were allowed to dissociate from the dish. Trypsin was neutralized using medium containing serum and centrifuged at 200×g for 5 minutes to pellet the cells. The cell density was adjusted to 2×10^5 cells/ml in Opti-MEM without phenol red.
The Complete 20× NanoBRET™ Tracer K5 Reagent with Tracer Dilution Buffer was prepared according to the manufacturer's instructions. One part of Complete 20× NanoBRET™ Tracer Reagent was added to 20 parts of cells in the tube. The sample was mixed gently by inversion 10 times. Next, the cell suspension was dispensed into white, 384-well NBS plates with a final tracer K5 concentration of 2 μM. The plate was incubated at 37° C., 5% CO2 for 1 hour. A separate set of samples without tracer were prepared for background correction steps.
The plate was removed from the incubator and equilibrated to room temperature for 15 minutes. The 3× Complete Substrate plus Inhibitor Solution in Assay Medium (Opti-MEMR I Reduced Serum Medium, no phenol red) was prepared just before measuring BRET. The 3× Complete Substrate plus Inhibitor Solution was added to each well of the 384-well plate and incubated for 2-3 minutes at room temperature. The donor emission wavelength (460 nm) and acceptor emission wavelength (600 nm) were measured using the Envision 2104 plate reader.
To generate raw BRET ratio values, the acceptor emission value (600 nm) was divided by the donor emission value (460 nm) for each sample. To correct for background, the BRET ratio in the absence of tracer (average of no-tracer control samples) was subtracted from the BRET ratio of each sample.
BRET Ratio=[(Acceptor sample÷Donor sample)−(Acceptor no-tracer control÷Donor no-tracer control)]
(In general: Bioluminescence resonance energy transfer reports proximity on the nanometre scale.)

The target in assay [2] is T3, NEK2 kinase (Accession No. NP-002488) (Homo sapiens, UniProt P51955).
T3 construct: purchased ThermoFisher Scientific (Invitrogen)
T3 sequence (P51955 1-445): T2 sequence (P51955 1-445)
As to the kind of experiment: HotSpot Kinase Assay, NEK2. The assay is classed as biochemical. The procedure:
as §2, §3, §4, §5

The test system of a further assay is EZH2 expression. As to the kind of experiment: Flow cytometry analysis for EZH2 expression in SW480 cells. It is filed as cell-based. Particulars: Homo sapiens, 24 hours treatment, 0-1000 nM, haploid and diploid cells, read-out: dose dependent decrease in EZH2 expression, IC50. The procedure:
as §1
Antibodies. Polyclonal antibodies to phosphorylated-Ser55 Hec1 (PA5-85846; 1:1000) were purchased from ThermoFisher Scientific, and Phospho-Thr320 PP1α (2581S; 1:1000) and Total PP1α (2582S; 1:1000) were purchased from Cell Signaling Technologies. Monoclonal antibodies to Phospho-Ser10 Histone H3 (53348S; 1:1000), Total Histone H3 (14269; 1:5000), and EZH2-FITC (30233, 1:50) antibodies were purchased from Cell Signaling Technologies; Total Hec1 (ab109496; 1:10000) was purchased from Abcam; and Total NEK2 (sc-55601; 1:200) and GAPDH (sc-365062; 1:1000-2000) antibodies were purchased from Santa Cruz Technologies.
Flow Cytometry Analysis. […] A minimum of 100,000 events were analyzed in each sample, and the results were evaluated using FlowJo software. […]

Setting [3] is: HotSpot Kinase Assay, read-out: Aurora A IC50.
[4] abbreviates: NEK2 target engagement, read-out: NanoBRET IC50.
[5] abbreviates: HotSpot Kinase Assay, read-out: NEK2 IC50.
Where [6] appears, read: comparator compounds, read-out: Aurora A Activity.
[7] abbreviates: comparator compounds, read-out: NEK2 Activity HotSpot Assay.

Like-named read-outs stand apart in the source and are kept apart here.

Regarding `O=C(O)[C@]1(Cc2cccc(Nc3nccs3)n2)CC[C@@H](Oc2cccc(Cl)c2F)CC1` [MK-5108], the cell cycle distribution result in the assay on SW480 cells was “significantly arrested cells in G2-M phase”.

Turning to `COc1cnc(Nc2ccc(N3CCNCC3)cc2)nc1Nc1cccc(OCc2ccccc2F)c1C#N` [Compound 10, 2-((2-fluorobenzyl)oxy)-6-((5-methoxy-2-((4-(piperazin-1-yl)phenyl)amino)pyrimidin-4-yl)amino)benzonitrile], the IC50 in assay [1] (setting [3]) was more than 1 µM; at NEK2 (setting [4]), 0.05 to 0.15 µM; in assay [2] (setting [5]), not above 0.005 µM.

With `N#Cc1c(Nc2nc(Nc3ccc(N4CCOCC4)cc3)ncc2Cl)cccc1OCc1ccccc1F` [Compound 2, 2-((5-chloro-2-((4-morpholinophenyl)amino)pyrimidin-4-yl)amino)-6-((2-fluorobenzyl)oxy)benzonitrile], the IC50 was more than 1 µM in assay [1] (setting [3]), more than 0.15 µM at NEK2 (setting [4]) and not above 0.005 µM in assay [2] (setting [5]).

On to `CN(C)CCn1cc(Nc2ncc(Cl)c(Nc3cccc(OCc4ccccc4F)c3C#N)n2)cn1` [Compound 32, 2-((5-chloro-2-((1-(2-(dimethylamino)ethyl)-1H-pyrazol-4-yl)amino)pyrimidin-4-yl)amino)-6-((2-fluorobenzyl)oxy)benzonitrile], for which the IC50 in assay [1] (setting [3]) is more than 1 µM; in assay [2] (setting [5]), more than 0.015 µM.

Consider `CN1CCN(Cc2ccc(Nc3ncc(Cl)c(Nc4ccc(C#N)c(OCc5ccccc5F)c4)n3)cc2)CC1` [CF-01, 4-((5-chloro-2-((4-((4-methylpiperazin-1-yl)methyl)phenyl)-amino)-pyrimidin-4-yl)amino)-2-((2-fluorobenzyl)-oxy)benzonitrile, reference compound], for which the IC50 in assay [1] (setting [6]) is 0.796 µM; on NEK2 (comparator compounds, read-out: NEK2 Activity NanoBRET assay), 0.264 µM; in assay [2] (setting [7]) it was more than 1 µM.

As to `CCN(CCCOc1ccc2c(Nc3cc(CC(=O)Nc4cccc(F)c4)n[nH]3)ncnc2c1)CCOP(=O)(O)O` [AZD-1152], the cell cycle distribution entry in the assay with SW480 cells is listed as “significantly arrested cells in G2-M phase”.

For the compound `Cc1cnc(Nc2ccc(N3CCNCC3)cc2)nc1Nc1cccc(OCc2ccccc2F)c1C#N` [Compound 12, 2-((2-fluorobenzyl)oxy)-6-((5-methyl-2-((4-(piperazin-1-yl)phenyl)amino)pyrimidin-4-yl)amino)benzonitrile], the IC50 at NEK2 (setting [4]) is not above 0.05 µM; in assay [2] (setting [5]) it was not above 0.005 µM; in the assay with EZH2 expression, 0.213 µM.

Regarding `CN1CCN(c2ccc(Nc3ncc(Cl)c(Nc4ccc(C(N)=O)c(OCc5ccccc5F)c4)n3)cc2)CC1` [CF-03, 4-((5-chloro-2-((4-(4-methylpiperazin-1-yl)phenyl)amino)-pyrimidin-4-yl)-amino)-2-((2-fluorobenzyl)oxy)benzamide, reference compound], in assay [1] (setting [6]), the IC50 was 0.0001 µM.

For `CN1CCN(c2ccc(Nc3ncc(Cl)c(Nc4ccc(C#N)c(OCc5ccccc5F)c4)n3)cc2)CC1` [CF-02, 4-((5-chloro-2-((4-(4-methylpiperazin-1-yl)phenyl)-amino)-pyrimidin-4-yl)amino)-2-((2-fluorobenzyl)-oxy)benzonitrile, reference compound], the IC50 in assay [1] (setting [6]) stood at 0.313 µM; in assay [2] (setting [7]) it was 0.264 µM.

The values are drawn from patent publication US20230090742A1, “AMINOPYRIMIDINYLAMINOBENZONITRILE DERIVATIVES AS NEK2 INHIBITORS” (Sumitomo Pharma Oncology, Inc., priority 2020, published 2023).
